Values quoted from earlier work in patent US5656291A, “Controlled release preparation” (Pharmacia & Upjohn Aktiebolag, priority 1995, dated 1997).

Conditions: after oral administration

CN1CC[C@]23c4c5ccc(O)c4O[C@H]2[C@@H](O)C=C[C@H]3[C@H]1C5 [Morphine]
duration of analgesic effect: 4 to 6 h
